ChEMBL document CHEMBL3885881, “DrugMatrix”

Species: Rattus norvegicus
Experiment: DrugMatrix - Regimen: Daily Repeat
Type: toxicity, organism-based, Sprague-Dawley
Parameters: regimen Daily Repeat, gender Male, age 6-8 weeks
Settings: in vivo, po, route oral GAVAGE, vehicle 100 % WATER; for ABSOLUTE BASOPHIL / ABSOLUTE EOSINOPHIL / ABSOLUTE LYMPHOCYTE / ABSOLUTE MONOCYTE / ABSOLUTE SEGMENTED NEUTROPHIL / BASOPHIL / EOSINOPHIL / ERYTHROCYTE COUNT / HEMATOCRIT / HEMOGLOBIN / LEUKOCYTE COUNT / LYMPHOCYTE / MEAN CORPUSCULAR HEMOGLOBIN / MEAN CORPUSCULAR HEMOGLOBIN CONCENTRATION / MEAN CORPUSCULAR VOLUME / MONOCYTE / NEUTROPHIL / NUCLEATED RED BLOOD CELLS / PLATELET COUNT: tissue Blood; for ALANINE AMINOTRANSFERASE / ALBUMIN / ALKALINE PHOSPHATASE / ASPARTATE AMINOTRANSFERASE / BLOOD UREA NITROGEN / CARBON DIOXIDE / CHLORIDE / CHOLESTEROL / CREATINE PHOSPHOKINASE / CREATININE / GLUCOSE / LACTATE DEHYDROGENASE / LIPASE / PHOSPHORUS / POTASSIUM / SODIUM / TOTAL BILIRUBIN / TOTAL PROTEIN / URIC ACID: tissue Plasma
[1] = 100 mg/kg, 72 h, dose level Low, time 3 day
[2] = 100 mg/kg, 120 h, dose level Low, time 5 day
[3] = 2000 mg/kg, 72 h, dose level High, time 3 day
[4] = 2000 mg/kg, 120 h, dose level High, time 5 day

O=C1O[C@H]([C@@H](O)CO)C(O)=C1O [ASCORBIC ACID]
ABSOLUTE BASOPHIL [1]: 0 CELLS/uL | ABSOLUTE EOSINOPHIL [1]: 27 CELLS/uL | ABSOLUTE LYMPHOCYTE [1]: 7261.67 CELLS/uL | ABSOLUTE MONOCYTE [1]: 27 CELLS/uL | ABSOLUTE SEGMENTED NEUTROPHIL [1]: 717.67 CELLS/uL | BASOPHIL [1]: 0% | EOSINOPHIL [1]: 0.33% | ERYTHROCYTE COUNT [1]: 4.91 x10E6/uL | HEMATOCRIT [1]: 32.13% | HEMOGLOBIN [1]: 13.13 G/DL | LEUKOCYTE COUNT [1]: 8.03 x10E3/uL | LYMPHOCYTE [1]: 89% | MEAN CORPUSCULAR HEMOGLOBIN [1]: 26.8 pg | MEAN CORPUSCULAR HEMOGLOBIN CONCENTRATION [1]: 40.87 G/DL | MEAN CORPUSCULAR VOLUME [1]: 65.43 fL | MONOCYTE [1]: 0.33% | NEUTROPHIL [1]: 10.33% | NUCLEATED RED BLOOD CELLS [1]: 0.33 /100WBC | PLATELET COUNT [1]: 954.33 x10E3/uL | ALANINE AMINOTRANSFERASE [1]: 50 u/L | ALBUMIN [1]: 4.53 G/DL | ALKALINE PHOSPHATASE [1]: 454.67 u/L | ASPARTATE AMINOTRANSFERASE [1]: 87 u/L | BLOOD UREA NITROGEN [1]: 15 mg/dL | CARBON DIOXIDE [1]: 32.33 mmol/L | CHLORIDE [1]: 101 MEQ/L | CHOLESTEROL [1]: 78.33 mg/dL | CREATINE PHOSPHOKINASE [1]: 273 u/L | CREATININE [1]: 0.25 mg/dL | GLUCOSE [1]: 121.33 mg/dL | LACTATE DEHYDROGENASE [1]: 148.67 u/L | LIPASE [1]: 9.67 u/L | PHOSPHORUS [1]: 12.13 mg/dL | POTASSIUM [1]: 7.25 MEQ/L | SODIUM [1]: 146.63 MEQ/L | TOTAL BILIRUBIN [1]: 0.23 mg/dL | TOTAL PROTEIN [1]: 6.33 G/DL | URIC ACID [1]: 1.07 mg/dL | ABSOLUTE BASOPHIL [2]: 0 CELLS/uL | ABSOLUTE EOSINOPHIL [2]: 0 CELLS/uL | ABSOLUTE LYMPHOCYTE [2]: 12684.67 CELLS/uL | ABSOLUTE MONOCYTE [2]: 119.33 CELLS/uL | ABSOLUTE SEGMENTED NEUTROPHIL [2]: 1596 CELLS/uL | BASOPHIL [2]: 0% | EOSINOPHIL [2]: 0% | ERYTHROCYTE COUNT [2]: 5.44 x10E6/uL | HEMATOCRIT [2]: 34.63% | HEMOGLOBIN [2]: 13.63 G/DL | LEUKOCYTE COUNT [2]: 14.4 x10E3/uL | LYMPHOCYTE [2]: 88.33% | MEAN CORPUSCULAR HEMOGLOBIN [2]: 25.07 pg | MEAN CORPUSCULAR HEMOGLOBIN CONCENTRATION [2]: 39.4 G/DL | MEAN CORPUSCULAR VOLUME [2]: 63.67 fL | MONOCYTE [2]: 1% | NEUTROPHIL [2]: 10.67% | NUCLEATED RED BLOOD CELLS [2]: 0 /100WBC | PLATELET COUNT [2]: 1152.33 x10E3/uL | ALANINE AMINOTRANSFERASE [2]: 51.67 u/L | ALBUMIN [2]: 4.3 G/DL | ALKALINE PHOSPHATASE [2]: 417 u/L | ASPARTATE AMINOTRANSFERASE [2]: 79 u/L | BLOOD UREA NITROGEN [2]: 17 mg/dL | CARBON DIOXIDE [2]: 33.33 mmol/L | CHLORIDE [2]: 103 MEQ/L | CHOLESTEROL [2]: 73 mg/dL | CREATINE PHOSPHOKINASE [2]: 142.33 u/L | CREATININE [2]: 0.2 mg/dL | GLUCOSE [2]: 152.67 mg/dL | LACTATE DEHYDROGENASE [2]: 82.33 u/L | LIPASE [2]: 8.33 u/L | PHOSPHORUS [2]: 12.97 mg/dL | POTASSIUM [2]: 6.73 MEQ/L | SODIUM [2]: 148.3 MEQ/L | TOTAL BILIRUBIN [2]: 0.2 mg/dL | TOTAL PROTEIN [2]: 6.23 G/DL | URIC ACID [2]: 1.53 mg/dL | ABSOLUTE BASOPHIL [3]: 0 CELLS/uL | ABSOLUTE EOSINOPHIL [3]: 0 CELLS/uL | ABSOLUTE LYMPHOCYTE [3]: 11911.67 CELLS/uL | ABSOLUTE MONOCYTE [3]: 70.67 CELLS/uL | ABSOLUTE SEGMENTED NEUTROPHIL [3]: 1384.33 CELLS/uL | BASOPHIL [3]: 0% | EOSINOPHIL [3]: 0% | ERYTHROCYTE COUNT [3]: 5.18 x10E6/uL | HEMATOCRIT [3]: 32.77% | HEMOGLOBIN [3]: 13.1 G/DL | LEUKOCYTE COUNT [3]: 13.37 x10E3/uL | LYMPHOCYTE [3]: 89.33% | MEAN CORPUSCULAR HEMOGLOBIN [3]: 25.27 pg | MEAN CORPUSCULAR HEMOGLOBIN CONCENTRATION [3]: 39.97 G/DL | MEAN CORPUSCULAR VOLUME [3]: 63.27 fL | MONOCYTE [3]: 0.67% | NEUTROPHIL [3]: 10% | NUCLEATED RED BLOOD CELLS [3]: 0 /100WBC | PLATELET COUNT [3]: 1123.33 x10E3/uL | ALANINE AMINOTRANSFERASE [3]: 37.67 u/L | ALBUMIN [3]: 4.03 G/DL | ALKALINE PHOSPHATASE [3]: 334 u/L | ASPARTATE AMINOTRANSFERASE [3]: 76.33 u/L | BLOOD UREA NITROGEN [3]: 15.33 mg/dL | CARBON DIOXIDE [3]: 32.33 mmol/L | CHLORIDE [3]: 101.67 MEQ/L | CHOLESTEROL [3]: 63.67 mg/dL | CREATINE PHOSPHOKINASE [3]: 214.33 u/L | CREATININE [3]: 0.17 mg/dL | GLUCOSE [3]: 146.33 mg/dL | LACTATE DEHYDROGENASE [3]: 137.67 u/L | LIPASE [3]: 9 u/L | PHOSPHORUS [3]: 11.5 mg/dL | POTASSIUM [3]: 6.65 MEQ/L | SODIUM [3]: 144.3 MEQ/L | TOTAL BILIRUBIN [3]: 0.2 mg/dL | TOTAL PROTEIN [3]: 5.63 G/DL | URIC ACID [3]: 1.4 mg/dL | ABSOLUTE BASOPHIL [4]: 0 CELLS/uL | ABSOLUTE EOSINOPHIL [4]: 0 CELLS/uL | ABSOLUTE LYMPHOCYTE [4]: 16297.33 CELLS/uL | ABSOLUTE MONOCYTE [4]: 372.33 CELLS/uL | ABSOLUTE SEGMENTED NEUTROPHIL [4]: 863.67 CELLS/uL | BASOPHIL [4]: 0% | EOSINOPHIL [4]: 0% | ERYTHROCYTE COUNT [4]: 5.49 x10E6/uL | HEMATOCRIT [4]: 35.9% | HEMOGLOBIN [4]: 14.2 G/DL | LEUKOCYTE COUNT [4]: 17.53 x10E3/uL | LYMPHOCYTE [4]: 93.33% | MEAN CORPUSCULAR HEMOGLOBIN [4]: 25.9 pg | MEAN CORPUSCULAR HEMOGLOBIN CONCENTRATION [4]: 39.53 G/DL | MEAN CORPUSCULAR VOLUME [4]: 65.47 fL | MONOCYTE [4]: 2% | NEUTROPHIL [4]: 4.67% | NUCLEATED RED BLOOD CELLS [4]: 0.33 /100WBC | PLATELET COUNT [4]: 1195.67 x10E3/uL | ALANINE AMINOTRANSFERASE [4]: 48 u/L | ALBUMIN [4]: 4.23 G/DL | ALKALINE PHOSPHATASE [4]: 355.33 u/L | ASPARTATE AMINOTRANSFERASE [4]: 75.33 u/L | BLOOD UREA NITROGEN [4]: 14.67 mg/dL | CARBON DIOXIDE [4]: 33.67 mmol/L | CHLORIDE [4]: 99.67 MEQ/L | CHOLESTEROL [4]: 70.67 mg/dL | CREATINE PHOSPHOKINASE [4]: 260 u/L | CREATININE [4]: 0.26 mg/dL | GLUCOSE [4]: 135.67 mg/dL | LACTATE DEHYDROGENASE [4]: 215 u/L | LIPASE [4]: 10.67 u/L | PHOSPHORUS [4]: 11.83 mg/dL | POTASSIUM [4]: 6.61 MEQ/L | SODIUM [4]: 144.07 MEQ/L | TOTAL BILIRUBIN [4]: 0.27 mg/dL | TOTAL PROTEIN [4]: 6.03 G/DL | URIC ACID [4]: 1.37 mg/dL
